Values quoted from earlier work, collected in patent US5585244A, “Detection of retinoid X receptor subtype γ proteins” (Ligand Pharmaceuticals Incorporated, priority 1994, dated 1996).

Tests used:
[1] = biological target: retinoic acid receptors (RARs); conditions: 9cRA and tRA bind with equally high affinity
[2] = biological target: retinoid X receptors (RXRs)
[3] = biological target: retinoid X receptors (RXRs); conditions: versus tritiated 9cRA

| Structure (SMILES) | Kd [1] [nM] | Kd [2] [nM] | IC50 [3] [nM] |
| --- | --- | --- | --- |
| CC1=C(/C=C/C(C)=C\C=C\C(C)=C\C(=O)O)C(C)(C)CCC1 [9cRA, 9-cis retinoic acid] | 0.2 to 0.8 | 1 to 2 | – |
| CC1=C(/C=C/C(C)=C/C=C/C(C)=C/C(=O)O)C(C)(C)CCC1 [tRA, all-trans retinoic acid] | 0.2 to 0.8 | – | > 50000 |
